# Data published in patent US7560473B2 (Institute of Pharmacology and Toxicology Academy of …, priority 2001, dated 2009).
# Marks after values point to notes of the source that are not given here.
# Tests used:
# [1] = target: T1, ATP-sensitive potassium channels in vascular smooth muscles (Rattus norvegicus, UniProt Q63563); assay: Association kinetics of [^3H]P1075 binding in aortic rings; parameters: species or system Wistar rat; settings: 37° C.; drug M: Compound 1 10^−4, Glibencamide 10^−5, ATP 10^−2, ADP 10^−3, UDP 5 × 10^−5, GTP 10^−3, Ade 10^−3; control 4.36 ± 0.45; means ± SD, n = 4~10
# T1 construct: The aorta was cut into about 3-5 mm arterial rings and the vascular endothelium was scraped off; from tissue; host or cells: endothelium-removed aortic rings of male Wistar rats
# Source text: Biological activity experiment 4. Allosteric regulation of novel compounds on ATP-sensitive potassium channels in vascular smooth muscles.
# To study the allosteric regulation of compound 1 on ATP-sensitive potassium channels in vascular smooth muscles, the radio-labled-ligand was used in the biological activity experiment 4.
# 1. The allosteric regulation of compound 1 on the binding sites for the selective KATP blocker glibenclamide in vascular smooth muscles was studied as follows: After decapitated, the male Wistar rat (340±20 g) was immediately incised open the thoracic cavity. The aorta was dissected and immersed in the 4° C. buffer containing 10 mM HEPES to wash off the blood, then carefully extirpated the fat, peripheral connective tissues and thrombus. The aorta was cut into about 3-5 mm arterial rings and the vascular endothelium was scraped off with wet tampon. The arterial rings were blotted, weighted and transferred into the tubes containing proper amount of ice colded physiological saline buffer. In the association kinetics experiment, the arterial circles in the tubes were incubated with, compound 1(10^−4M), pinacidil(10^−4M), ATP(10^−2M), ADP(10^−3M), Ade(10^−3M), […] and equal volume of buffer respectively for 10 min in 25° C. water bath, and then added [^3H]-glibenclamide(3 nM). At 5,10,15,20,30,60,90 and 120 min after incubation, 9 mL ice colded Tris buffer (50 mM) was added to terminate the reaction. After washing off the free and bound [^3H]-glibenclamide, the aorta was blotted, transferred to a scintillator, added 50 uL 30% H2O2 and reacted for 2 h at 80° C. After cooling, 2.5 mL ethyl glycol and 5 mL 1% B-BPD xylene were added in sequence, kept stationary for 8 h and measured under a scintillometer for cpm value. The resulting data were fit into a regression line with In[BEQ/(BEQ-Bt)]vs.t and the parameters for association kinetics were obtained. In the disassociation kinetics experiments, the aorta treated as described above and [^3H]-glibenclamide were incubated for 60 min at 25° C., and then 30 uM glibenclamide was added. 0,5,15,30,60,90 and 120 min later, the cpm values for the complex of [^3H]-glibenclamide and KATP were measured. The resulting data were fit into a regression line with In(B/BEQ)]vs.t and the parameters for disassociation kinetics were obtained. 2. The allosteric regulation of compound 1 on the binding sites for the selective KATP activator P1075 in vascular smooth muscles was studied with the method as described above, but some conditions should be changed as follows: the incubation temperature was 37° C. instead of 25° C.;P1075 was used instead of glibenclamide; In the association kinetics experiments, the time points for sampling were 5,10,15,20,30,45,60 and 90 min, while in the disassociation kinetics experiments, that were 1,3,5,10,20,30,45 and 60 min. Biological activity experiment 5. The effects of compound 1 on the specific binding of high selective activator [^3H]P1075 with ATP-sensitive potassium channels in vascular smooth muscles.
# SHRsp = assay: Prophylaxis and treatment of SHRsp cerebral apoplexy; format: in vivo, rats; settings: for Survival time: control 4.6 ± 3.8; for Survival time / Period needed for onset of cerebral apoplexy: means ± SD; for Period needed for onset of cerebral apoplexy: control 48.3 ± 7.4; for Death rate of cerebral apoplexy / Rate of cerebral apoplexy: n 12; for Death rate of cerebral apoplexy: control 50.0; for Rate of cerebral apoplexy: control 83.3
# Experimental: Biological activity experiment 8 the prophylaxis and treatment of cerebral apoplexy with compound 1 of formula Ia
# The methods of biological activity experiments were carried out as follows: Desired concentration of compound 1 was prepared with distilled water, while desired concentration of nimodipine was prepared with market available Jinglongyu^T oil. 30 male and 30 female SHRsp (10 weeks old, 120-180 g) were purchased from the vascular disease research center of Academy of Military Medical Science. All SHRsp were divided randomly into five groups based on blood pressure, body weight and sex: control group (fed with equal amount of Jinglongyu^T oil), […], […], […], and 4.0 mg.kg^−1d^−1 nimodipine treated group. Each group contained 12 animals and 4-5 animals were fed in a cage. The feedstaff (containing 23-24% protein) was purchased from experimental animal center of Academy of Military Medical Science. The animals were fed with tap water containing 1% NaCl to accelerate the onset of cerebral apoplexy. 12 normal WKY rats (with the same age and sex with the above) were selected as control, and fed with tap water and the same feedstuff. When reached 11 weeks old, the animals were fed with drugs for experiments.
# cordical nerve = assay: Cordical nerve apoptosis induced by low level oxygen and glucose; format: cell-based, Wistar rats; settings: for Apoptosis percentage: low level oxygen and glucose 16 h, flow cytometer, control 2.3 ± 1.2, low oxygen and glucose alone 23.8 ± 7.4, means ± SD
# Experimental: Biological Activity Experiment 9 The Inhibition Effects of Compound 1 on the Cordical Nerve Apoptosis Induced by Low Level Oxygen and Glucose
# The methods of biological activity experiment 9 were carried out as follows: The cordical nerve were prepared from 12-hour old Wistar rats and cultured. See G. Y. Yang, A. L. Bentz. Reperfusion-induced injure to the blood-brain after middle cerebral artery occlusion in rats. Stroke, 1994,25:1658-1665. Serum-free DMEM medium was applied 12 days later. The preparation was incubated in low oxygen tank (95% N2+5% CO2) for 8, 16 and 24 h respectively, and then restored oxygen to normal level for another 24 h. The experiments on five groups were as follows: the control group was cultured for 14 days with normal medium; low level oxygen and glucose treated group was cultured with normal medium for 12 days, then with serum-free medium containing low level oxygen and glucose for 16 h and with normal oxygen level for another 24 h; compound 1 treated group was cultured in serum-free medium containing low level oxygen and glucose for 16 h and with normal oxygen level for another 24 h, then added respectively different concentrations of compound 1 (0.1, 1.0 and 10 umol.L^−1). As to the method for detecting apoptosis by the electron microscopy and flow cytometer, refer to C.Du, R.Hu, C. A. Csernansky, et al. Very delayed infarction after mild focal cerebral ischemia: a role for apoptosis. J.Cereb.Flow Metab., 1996,16:195-201; M.Chopp, Y.Li, N.Jiang, et al. Antibodies against adhesion molecules reduced apoptosis after transient middle artery occlusion in rat brain. J.Cereb.Flow Metab., 1996,16:578-584.
# T1 sequence (Q63563 1-1545 isoform Q63563-2): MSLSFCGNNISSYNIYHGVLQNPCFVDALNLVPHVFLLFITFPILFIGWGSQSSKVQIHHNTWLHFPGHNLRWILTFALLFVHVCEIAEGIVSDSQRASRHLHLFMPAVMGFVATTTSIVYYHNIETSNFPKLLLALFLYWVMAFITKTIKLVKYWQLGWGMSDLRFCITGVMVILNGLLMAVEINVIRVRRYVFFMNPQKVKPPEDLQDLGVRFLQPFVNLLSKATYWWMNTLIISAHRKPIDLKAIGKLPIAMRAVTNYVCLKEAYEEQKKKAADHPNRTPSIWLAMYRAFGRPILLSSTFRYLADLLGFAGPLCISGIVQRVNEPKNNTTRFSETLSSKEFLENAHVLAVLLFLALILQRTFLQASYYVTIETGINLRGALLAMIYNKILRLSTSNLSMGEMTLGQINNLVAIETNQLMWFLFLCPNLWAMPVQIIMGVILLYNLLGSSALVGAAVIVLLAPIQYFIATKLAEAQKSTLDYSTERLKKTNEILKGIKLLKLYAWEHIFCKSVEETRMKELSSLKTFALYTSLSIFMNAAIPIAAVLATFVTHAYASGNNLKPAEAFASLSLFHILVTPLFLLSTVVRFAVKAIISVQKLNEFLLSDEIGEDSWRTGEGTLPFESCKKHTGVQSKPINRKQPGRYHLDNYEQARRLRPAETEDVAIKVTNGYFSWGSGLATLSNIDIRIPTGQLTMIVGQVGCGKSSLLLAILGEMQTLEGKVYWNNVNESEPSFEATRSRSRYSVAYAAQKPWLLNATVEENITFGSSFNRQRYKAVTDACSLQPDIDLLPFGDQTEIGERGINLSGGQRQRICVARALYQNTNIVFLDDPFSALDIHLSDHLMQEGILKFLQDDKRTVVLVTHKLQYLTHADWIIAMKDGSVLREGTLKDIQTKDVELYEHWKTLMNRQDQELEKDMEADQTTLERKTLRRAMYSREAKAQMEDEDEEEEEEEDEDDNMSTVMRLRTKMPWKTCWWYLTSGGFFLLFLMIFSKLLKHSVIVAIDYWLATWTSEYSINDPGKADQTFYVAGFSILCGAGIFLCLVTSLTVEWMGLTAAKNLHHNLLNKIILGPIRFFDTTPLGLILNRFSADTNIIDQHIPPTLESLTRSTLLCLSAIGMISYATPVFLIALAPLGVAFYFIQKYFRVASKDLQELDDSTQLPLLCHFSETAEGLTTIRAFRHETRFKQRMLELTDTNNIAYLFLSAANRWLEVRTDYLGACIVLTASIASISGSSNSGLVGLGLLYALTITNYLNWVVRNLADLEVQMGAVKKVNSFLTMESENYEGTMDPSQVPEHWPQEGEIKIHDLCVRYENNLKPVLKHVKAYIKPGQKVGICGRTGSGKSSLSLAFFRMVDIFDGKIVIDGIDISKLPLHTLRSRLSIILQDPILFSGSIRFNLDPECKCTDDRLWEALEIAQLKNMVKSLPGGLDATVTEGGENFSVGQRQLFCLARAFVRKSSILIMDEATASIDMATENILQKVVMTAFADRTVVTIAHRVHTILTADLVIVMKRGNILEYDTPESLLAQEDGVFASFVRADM
# T1 sequence (Q63664 whole entry partner): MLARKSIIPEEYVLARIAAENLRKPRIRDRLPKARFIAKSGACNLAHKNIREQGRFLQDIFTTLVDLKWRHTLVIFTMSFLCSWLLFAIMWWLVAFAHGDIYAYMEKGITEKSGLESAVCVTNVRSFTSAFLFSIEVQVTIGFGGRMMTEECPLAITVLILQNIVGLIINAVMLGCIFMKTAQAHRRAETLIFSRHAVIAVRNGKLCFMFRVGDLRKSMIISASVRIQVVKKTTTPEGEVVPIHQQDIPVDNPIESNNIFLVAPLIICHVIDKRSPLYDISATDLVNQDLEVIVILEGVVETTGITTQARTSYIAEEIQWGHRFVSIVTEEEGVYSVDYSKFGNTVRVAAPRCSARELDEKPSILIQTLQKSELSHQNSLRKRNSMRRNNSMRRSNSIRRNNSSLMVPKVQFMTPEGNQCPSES
smiles,measurement,setting,value
"CC(C)NC(C)(C)C(C)C [compound 1, N-(1-methylethyl)-2,3-dimethyl-2-butylamine]",Association kinetics kobs of [^3H]P1075 binding,[1],2.44 ± 0.80 ×10^−2 nM^−1 · min^−1
same,Survival time,SHRsp; 0.25 mg · kg^−1d^−1 fed,7.2 ± 5.3 days
same,Period needed for onset of cerebral apoplexy,SHRsp; 0.25 mg · kg^−1d^−1 fed,58.6 ± 14.1 days
same,Death rate of cerebral apoplexy,SHRsp; 0.25 mg · kg^−1d^−1 fed,27.3%
same,Rate of cerebral apoplexy,SHRsp; 0.25 mg · kg^−1d^−1 fed,72.7%
same,Survival time,SHRsp; 1 mg · kg^−1d^−1 fed,10.2 ± 4.1 days
same,Period needed for onset of cerebral apoplexy,SHRsp; 1 mg · kg^−1d^−1 fed,60.8 ± 18.9 days
same,Death rate of cerebral apoplexy,SHRsp; 1 mg · kg^−1d^−1 fed,20.0%
same,Rate of cerebral apoplexy,SHRsp; 1 mg · kg^−1d^−1 fed,40.0* %
same,Survival time,SHRsp; 4 mg · kg^−1d^−1 fed,11.8 ± 3.2 days
same,Period needed for onset of cerebral apoplexy,SHRsp; 4 mg · kg^−1d^−1 fed,68.6 ± 16.5 days
same,Death rate of cerebral apoplexy,SHRsp; 4 mg · kg^−1d^−1 fed,8.3* %
same,Rate of cerebral apoplexy,SHRsp; 4 mg · kg^−1d^−1 fed,33.3* %
same,nerve symptom of cerebral apoplexy (in words),SHRsp; SHRsp,significantly improve the nerve symptom
same,Apoptosis percentage,cordical nerve; 0.1 umol · L^−1,17.6 ± 5.8%
same,Apoptosis percentage,cordical nerve; 1 umol · L^−1,13.9 ± 5.2 %
same,Apoptosis percentage,cordical nerve; 10 umol · L^−1,10.8 ± 4.1 %
same,apoptotic changes of cordical nerve cells under electron microscopy (in words),"cordical nerve; 10 umol.L^−1, low level oxygen and glucose",the above mentioned changes were hardly observed
